Each structure is given as a SMILES string.

This passage reports pest or weed control and inhibition results from patent US9770026B2, “Substituted pyrimidine compound and uses thereof” (Shenyang Sinochem Agrochemicals R&D Co., Ltd., priority 2012, dated 2017).

One assay concerns Diamond back moth. The assay is described as follows: insecticidal activity against diamond back moth, airbrush spray. The conditions noted are these: 72 h; for pest or weed control at 600 µg/mL: 600 mg/L; for pest or weed control at 10 µg/mL: 10 mg/L; for pest or weed control at 100 µg/mL: 100 mg/L. The class given is in vivo. A digest of the protocol: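 Airbrush leaf-disc spray test: both faces of 2 cm cabbage discs received 0.5 ml of test solution at 0.7 kg/cm^2. Solutions were made in acetone:methanol (1:1) and brought to concentration with 0.1% Tween 80 in water. Ten second-instar larvae per disc, triplicates, were held at 25° C and 60˜70% R.H., with mortality recorded at 72 hrs.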

The test system of the next assay is carmine spider mite. Put plainly: bioactivity test against carmine spider mite, airbrush spray. The class given is in vivo. The conditions noted are these: Tetranychus cinnabarinus, 72 h, contrastive test, read-out: Insecticidal activity against carmine spider mite (% ); for pest or weed control at 600 µg/mL: 600 mg/L; for pest or weed control at 10 µg/mL: 10 mg/L; for pest or weed control at 100 µg/mL: 100 mg/L. The procedure, abridged: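 Broadbean seedlings infested with adult mites were sprayed with compound (acetone/methanol stock diluted in 0.1% Tween 80 water) by airbrush at 0.7 kg/cm^2, 0.5 ml. Three replicates were run. Mortality was scored after 72 hrs.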

In another assay the test system is wheat powdery mildew. The assay is described as follows: protectant activity in vivo against wheat powdery mildew. To be noted: Triticum aestivum, 168 h, protectant activity; for pest or weed control at 100 µg/mL: read-out: control effect against wheat powdery mildew (%), 100 mg/L; for pest or weed control at 400 µg/mL: read-out: control effect against wheat powdery mildew (%), 400 mg/L; for pest or weed control at 6.25 µg/mL: read-out: control effect against wheat powdery mildew (%), 6.25 mg/L; for pest or weed control at 25 µg/mL: read-out: control effect against wheat powdery mildew (%), 25 mg/L.

The subject of another assay is cucumber gray mold. Put plainly: fungicidal activity in vitro (inhibition rate) against cucumber gray mold. It counts as cell-based. To be noted: 25 ppm, in vitro; read-out: inhibition rate against cucumber gray mold.
For a further assay, the system named is rice blast. The assay is described as follows: microbe, parasite or virus in culture. It counts as cell-based. To be noted: Pyricularia oryzae; for inhibition at 25 ppm: read-out: inhibition rate against rice blast, 25 ppm, in vitro.
The subject of another assay is corn rust. Put plainly: protectant activity in vivo against corn rust. To be noted: Zea mays, 168 h, protectant activity; for pest or weed control at 100 µg/mL: read-out: control effect against corn rust (%), 100 mg/L; for pest or weed control at 400 µg/mL: read-out: control effect against corn rust (%), 400 mg/L; for pest or weed control at 6.25 µg/mL: read-out: control effect against corn rust (%), 6.25 mg/L; for pest or weed control at 25 µg/mL: read-out: control effect against corn rust (%), 25 mg/L.

The test system of another assay is armyworm. Put plainly: bioactivity test against armyworm, airbrush spray. The class given is in vivo. The conditions noted are these: 72 h, read-out: Insecticidal activity against armyworm (%); for pest or weed control at 600 µg/mL: 600 mg/L; for pest or weed control at 10 µg/mL: 10 mg/L.
The subject of assay [1] is Green peach aphids (Myzus Persicae Sulzer). The assay is described as follows: bioactivity test against green peach aphid, airbrush foliar spray. It counts as in vivo. The conditions noted are these: Myzus persicae, foliar, 48 h, contrastive test, read-out: Insecticidal activity against peach aphid (%); for pest or weed control at 2.5 µg/mL: 2.5 mg/L; for pest or weed control at 5 µg/mL: 5 mg/L; for pest or weed control at 10 µg/mL: 10 mg/L; for pest or weed control at 100 µg/mL: 100 mg/L; for pest or weed control at 600 µg/mL: 600 mg/L. A digest of the protocol:
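Death rate was scored at 48 hrs, held at 25±1 C and 60±5% RH, following airbrush foliar spray (0.5 mL, 10 psi) onto cabbage leaf discs bearing about 15-30 aphids. Test solutions: compound dissolved in 1:1 acetone:methanol, brought to concentration with 0.1% tween 80 water.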

The test system of the next assay is cucumber downy mildew. Put plainly: protectant activity in vivo against cucumber downy mildew. To be noted: Cucumis sativus, 168 h, protectant activity; for pest or weed control at 25 µg/mL: read-out: control effect against cucumber downy mildew (%), 25 mg/L; for pest or weed control at 50 µg/mL: read-out: control effect against cucumber downy mildew (%), 50 mg/L; for pest or weed control at 100 µg/mL: read-out: control effect against cucumber downy mildew (%), 100 mg/L; for pest or weed control at 400 µg/mL: read-out: control effect against cucumber downy mildew (%), 400 mg/L.

Regarding `CC(Cl)c1ncnc(NCCc2ccc(O)cc2)c1Cl` (stereo not shown) [CK4, reference compound], the pest or weed control at 600 µg/mL is 0% with Diamond back moth, 75% in the assay on carmine spider mite, 40% with armyworm and 100% in assay [1]. Besides, the figures for the pest or weed control at 100 µg/mL (with wheat powdery mildew; in the assay with corn rust; in assay [1]) were 0%, 0% and 100%, respectively. Moreover, the figures for the pest or weed control at 400 µg/mL with wheat powdery mildew and in the assay with corn rust were 40% and 0%, respectively. Moreover, the figures for the inhibition at 25 ppm with cucumber gray mold and in the assay with rice blast were 0% and less than 50%, respectively. Besides, the pest or weed control at 2.5 µg/mL in assay [1] is 0%. Moreover, the pest or weed control at 5 µg/mL in assay [1] is 41%. Moreover, the pest or weed control at 10 µg/mL in assay [1] amounted to 64%.

As to `CCc1ncnc(OCCc2ccc(Oc3ccccc3)cc2)c1Cl` [CK13, reference compound], the pest or weed control at 10 µg/mL stood at 0% in the assay with Diamond back moth, 0% in the assay with carmine spider mite, 0% in the assay with armyworm and 83% in assay [1]. In addition, the pest or weed control at 100 µg/mL in the assay on Diamond back moth was found to be 16%; in the assay with carmine spider mite, 0%; in the assay on wheat powdery mildew it was 0%; in the assay with corn rust it was 0%; in the assay with armyworm (100 mg/L) it was 0%; in the assay on cucumber downy mildew it was 25%. Also, in assay [1], the pest or weed control at 100 µg/mL is 98%. Also, the pest or weed control at 600 µg/mL in the assay with Diamond back moth was found to be 67%; in the assay with carmine spider mite, 100%; in the assay on armyworm it was 86%; in assay [1], 100%. In addition, the pest or weed control at 6.25 µg/mL in the assay on wheat powdery mildew and in the assay on corn rust was 0% throughout. Also, the pest or weed control at 25 µg/mL in the assay on wheat powdery mildew, in the assay with corn rust and in the assay on cucumber downy mildew was 0% in each case. In addition, the pest or weed control at 400 µg/mL with wheat powdery mildew was found to be 40%; in the assay on corn rust it was 100%; with cucumber downy mildew, 85%. The inhibition at 25 ppm with cucumber gray mold and with rice blast was 0% in each case. In addition, the pest or weed control at 50 µg/mL with cucumber downy mildew came to 0%. In addition, the pest or weed control at 5 µg/mL in assay [1] was 0%.

In the case of `CCc1ncnc(OCCc2ccc(OCc3ccccc3)cc2)c1Cl` [CK14, reference compound], the pest or weed control at 10 µg/mL with Diamond back moth is 0%; with carmine spider mite, 6%; in assay [1], 0%. Also, the pest or weed control at 100 µg/mL with Diamond back moth was determined as 10%; with carmine spider mite it was 33%; with wheat powdery mildew, 10%; in the assay with corn rust, 20%; in the assay with cucumber downy mildew, 40%; in assay [1], 70%. Further, the pest or weed control at 600 µg/mL is 67% with Diamond back moth, 100% in the assay with carmine spider mite, 0% with armyworm and 100% in [1]. Further, the pest or weed control at 6.25 µg/mL in the assay with wheat powdery mildew and in the assay with corn rust was 0% in each case. The pest or weed control at 25 µg/mL in the assay with wheat powdery mildew, in the assay with corn rust and in the assay on cucumber downy mildew was 0% throughout. The pest or weed control at 400 µg/mL was determined as 85% in the assay with wheat powdery mildew, 100% in the assay on corn rust and 98% in the assay with cucumber downy mildew. In the assay with cucumber gray mold, the inhibition (commonly the percentage by which the read-out fell short of the control) at 25 ppm worked out at 0%. In addition, the inhibition at 8.3 ppm in the assay on rice blast (read-out: inhibition rate against rice blast, 8.3 ppm, in vitro) was determined as 0%. Moreover, the pest or weed control at 50 µg/mL in the assay with cucumber downy mildew came out at 0%.

Regarding `CC(Cl)c1ncnc(NCCc2ccc(Oc3ccc(C(F)(F)F)cc3)cc2)c1Cl` (stereo not shown) [CK20, reference compound], the pest or weed control at 600 µg/mL with Diamond back moth was 57%; with carmine spider mite, 100%. Further, the pest or weed control at 100 µg/mL is 72% in the assay with carmine spider mite, 30% in the assay with wheat powdery mildew, 70% in the assay on corn rust and 10% with cucumber downy mildew. The pest or weed control at 6.25 µg/mL in the assay on wheat powdery mildew and in the assay with corn rust was 0% in each case. Moreover, the pest or weed control at 25 µg/mL with wheat powdery mildew, with corn rust and in the assay on cucumber downy mildew was 0% each time. Moreover, the pest or weed control at 400 µg/mL in the assay on wheat powdery mildew, in the assay with corn rust and in the assay on cucumber downy mildew was 100% in each case. Besides, the inhibition at 25 ppm in the assay with cucumber gray mold and with rice blast was less than 50% throughout. Besides, the pest or weed control at 10 µg/mL in the assay with armyworm was 0%. The pest or weed control at 50 µg/mL in the assay on cucumber downy mildew stood at 0%.

Consider `CC(Cl)c1ncnc(NCCc2ccc(Oc3ncc(C(F)(F)F)cc3Cl)cc2)c1Cl` (stereo not shown) [CK21, reference compound], for which the pest or weed control at 10 µg/mL with Diamond back moth amounted to 10%; in assay [1], 35%. The pest or weed control at 100 µg/mL with Diamond back moth was 25%; in assay [1] it was 98%. Moreover, the pest or weed control at 600 µg/mL worked out at 80% with Diamond back moth, 0% with carmine spider mite, 0% in the assay with armyworm and 100% in [1]. Besides, the pest or weed control at 400 µg/mL was found to be 0% in the assay with wheat powdery mildew and 85% in the assay with corn rust. The inhibition at 25 ppm was less than 50% with cucumber gray mold and 0% with rice blast. The pest or weed control at 2.5 µg/mL in assay [1] was determined as 0%. For the same compound, in assay [1], the pest or weed control at 5 µg/mL stood at 19%.

On to `CC(Cl)c1ncnc(NCCc2ccc(Oc3ncc(Cl)cc3Cl)cc2)c1Cl` (stereo not shown) [CK45, reference compound], for which the pest or weed control at 10 µg/mL in the assay with Diamond back moth was 0%; in assay [1], 55%. In addition, the pest or weed control at 100 µg/mL with Diamond back moth came to 12%; in assay [1], 98%. Moreover, the pest or weed control at 600 µg/mL in the assay with Diamond back moth was found to be 86%; in the assay with carmine spider mite it was 0%; in the assay with armyworm, 0%; in assay [1], 100%. The pest or weed control at 400 µg/mL in the assay with wheat powdery mildew came to 0%; in the assay with corn rust it was 80%. Moreover, the inhibition at 25 ppm in the assay with cucumber gray mold is less than 50%; in the assay with rice blast, 0%. The pest or weed control at 1.25 µg/mL in assay [1] (1.25 mg/L) came out at 0%. The pest or weed control at 2.5 µg/mL in assay [1] stood at 26%. For the same compound, the pest or weed control at 5 µg/mL in assay [1] is 39%.
